Several values for one entry are separate records, joined by “and”; a condition that tells them apart may be missing. Equal values may be shown once.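 96-well plates; 48 h exposure; 5 concentrations. Endpoints by linear interpolation between flanking doses. Not reached: highest tested concentration assigned. Abbreviation: GI50, concentration required for 50% inhibition of growth. The concentration for full growth arrest is given as TGI.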
Legend:
Assay in all cases: growth of human tumour cells (NCI), 48 h
IGROV1 ovarian = tested on: IGROV1 ovarian
U251 CNS = tested on: U251 CNS
UACC-257 melanoma = tested on: UACC-257 melanoma
PC-3 prostate = tested on: PC-3 prostate
SNB-19 CNS = tested on: SNB-19 CNS
MCF7 breast = tested on: MCF7 breast
DU-145 prostate = tested on: DU-145 prostate
LOX IMVI melanoma = tested on: LOX IMVI melanoma
HS 578T breast = tested on: HS 578T breast
SR leukemia = tested on: SR leukemia

Structure (SMILES) | GI50 (IGROV1 ovarian) | TGI (IGROV1 ovarian) | GI50 (U251 CNS) | TGI (U251 CNS) | GI50 (UACC-257 melanoma) | TGI (UACC-257 melanoma) | GI50 (PC-3 prostate) | TGI (PC-3 prostate) | GI50 (SNB-19 CNS) | TGI (SNB-19 CNS) | GI50 (MCF7 breast) | TGI (MCF7 breast) | GI50 (DU-145 prostate) | TGI (DU-145 prostate) | GI50 (LOX IMVI melanoma) | TGI (LOX IMVI melanoma) | GI50 (HS 578T breast) | TGI (HS 578T breast) | TGI (SR leukemia) | GI50 (SR leukemia)
CSc1ccc(C2=Nn3c(nnc3-c3ccc(F)c(Cl)c3)SC2)cc1 | 13.1 µM | 44.4 µM | 3.85 µM | 13.8 µM | 67.6 µM | > 100 µM | 4.67 µM | > 100 µM | 10.7 µM | 32.7 µM | 7.54 µM | 25.8 µM | 34.2 µM | > 100 µM | 10.8 µM | 43.1 µM | 10 µM | 36.6 µM |  | 
C=C1C(=O)O[C@@H]2C[C@@]3(C)CC(=O)C=C(C)[C@@H]3C[C@H]12 |  | 32.2 µM |  | 39.1 µM |  | 41.7 µM |  | 36.3 µM |  | 50 µM |  | 14.9 µM |  | 16.1 µM |  | 38.1 µM |  | 99.7 µM |  | 
O=C(C(=O)c1ccc(Cc2ccc(C(=O)C(=O)c3ccccc3)cc2)cc1)c1ccccc1 |  | > 100 µM |  | > 100 µM |  | > 100 µM |  |  |  | > 100 µM |  |  |  |  |  | > 100 µM |  |  |  | 
O=c1nc(-c2ccccc2)c2c3c(cccn13)CCC2 |  | > 100 µM |  | > 100 µM |  | > 100 µM |  |  |  | > 100 µM |  |  |  |  |  | > 100 µM |  |  | > 100 µM | 
COC(=O)C1=C(OC(=O)c2ccc(Cl)cc2)C(C(=O)OC)[C@@]2(O)[C@@H](C(=O)OC)C(c3ccccc3C(F)(F)F)C[C@@H]1[C@@H]2C(=O)OC (stereo partly drawn) |  |  | 3.26 µM | 21.4 µM | 2.76 µM | 8.32 µM | 4.5 µM | > 100 µM | 6.44 µM | > 100 µM | 10.7 µM | 87.5 µM | 6.1 µM | > 100 µM |  |  | 3.96 µM | 24.2 µM | > 100 µM | 3.94 µM
O=c1oc2ccccc2c(O)c1C=NC(=S)c1ccncc1 |  | > 100 µM |  | > 100 µM |  | > 100 µM |  | > 100 µM |  | > 100 µM |  | > 100 µM |  | > 100 µM |  | > 100 µM |  |  |  | 
CCC1(Br)C(=O)NC(=O)N(C2CC(O)C(CO)O2)C1N=[N+]=[N-] (stereo not drawn) |  | > 100 µM |  | > 100 µM |  | > 100 µM |  |  |  | > 100 µM |  |  |  |  |  | > 100 µM |  |  |  | 
O=[N+]([O-])c1ccc(N=Nc2c(O)[nH]c3ccc([N+](=O)[O-])cc23)cc1 |  | > 100 µM |  | 41.7 µM |  | 59.7 µM |  |  |  | 40.5 µM |  |  |  |  |  | > 100 µM |  |  | > 100 µM | 
C[n+]1cc2c3c(ccc2c2ccc4cc5c(cc4c21)OCO5)OCO3 | 1.18 µM | 2.48 µM | 0.331 µM | 1.28 µM | 1.18 µM | 2.43 µM | 0.668 µM | 2.08 µM | 1.29 µM | 2.72 µM |  |  | 0.726 µM | 1.96 µM | 0.171 µM | 0.411 µM | 2.11 µM | > 24.6 µM |  | 0.258 µM
CC1(C)C(=O)C(O)=CC2C1=CCC1C2(C)C(=O)CC2(C)C(C(C)(O)C(=O)CC(O)C(C)(C)O)C(O)CC12C (stereo not drawn) |  | 7.1 µM |  | 7.58 µM |  | 30.2 µM |  |  |  | 12.7 µM |  |  |  |  |  | 6.95 µM |  |  | 25.3 µM | 
N#CC(C#N)SCc1ccccc1 |  | > 100 µM |  | 56.6 µM |  | > 100 µM |  | > 100 µM |  | > 100 µM |  | > 100 µM |  | 55.3 µM |  | > 19.8 µM |  | 98.3 µM |  | 
COC(=O)C1=CCON(c2ccccc2)C1c1ccccc1 (stereo not drawn) |  | > 100 µM |  | > 100 µM |  |  |  |  |  | > 100 µM |  |  |  |  |  | > 100 µM |  |  | > 100 µM | 
CON(C)C(=O)C(C)NC(=O)OCc1ccccc1 (stereo not drawn) |  | > 100 µM |  | > 100 µM |  | > 100 µM |  | > 100 µM |  | > 100 µM |  | > 100 µM |  | > 100 µM |  |  |  | > 100 µM | > 100 µM | 
CCc1ccccc1NC(=O)C(=O)C(C(=O)c1ccc(OC)cc1)c1ccc(OC)cc1 (stereo not drawn) |  | > 100 µM |  | > 100 µM |  | > 100 µM |  |  |  | > 100 µM |  |  |  |  |  | > 100 µM |  |  |  | 
O=C1c2ccccc2N2OC3(N4CCCC4)CCCC3C12c1ccccc1 (stereo not drawn) |  | > 100 µM |  | > 100 µM |  | > 100 µM |  |  |  | > 100 µM |  |  |  |  |  |  |  |  | > 100 µM | 
CSc1ccc(/C=C2\CNC/C(=C\c3ccc(SC)cc3)C2=O)cc1 | 26.3 µg/mL | > 162 µM and 110 µg/mL | 34.8 µM and 21.7 µg/mL | 83.7 µM and 65.4 µg/mL | 150 µg/mL | > 371 µM and 150 µg/mL |  |  | 50.9 µM and 23.9 µg/mL | > 127 µM and 89.4 µg/mL | > 371 µM and 58.8 µg/mL | > 371 µM and 150 µg/mL |  | > 371 µM | 7.76 µM and 150 µg/mL | > 371 µM and 150 µg/mL |  | > 371 µM | 67.8 µM and > 190 µM | 23.3 µM
COc1ccc(OC)c(-c2cc(-c3ccccc3)nn2-c2ccc(S(=O)(=O)NC(C)=O)cc2)c1 | 27.4 µM | > 100 µM |  |  |  |  | 6.08 µM | 20.6 µM |  |  | 2.38 µM | > 100 µM | 17.9 µM | 36.9 µM |  |  | 27.4 µM | 80 µM | > 100 µM | 2.38 µM
O=C(c1ccccc1)c1c(CC(O)c2cccnc2)n(C(=O)c2ccccc2)c2ccccc12 (stereo not drawn) |  | 55.5 µM |  | 30.7 µM |  | 42 µM |  |  |  | 63.1 µM |  |  |  |  |  |  |  |  | 35.1 µM | 
Cc1cc([N+](=O)[O-])c(C)c2c1[nH]c1ccc(/C(CCC3CCCC3)=N\N)cc12 |  |  |  |  |  | 42.7 µM |  |  |  | 35.7 µM |  |  |  |  |  | 29.6 µM |  |  | 55.9 µM | 
Cc1c(C)c2cc3c(=O)ccoc3c(C)c2oc1=O |  | > 100 µM |  | > 100 µM |  | > 100 µM |  |  |  | > 100 µM |  |  |  |  |  | > 100 µM |  |  |  | 
O=C1[C@@H](c2ccc(Cl)cc2)[C@H]2CC=C[C@H]2N1O |  | > 100 µM |  |  |  | > 100 µM |  |  |  | > 100 µM |  |  |  |  |  | > 100 µM |  |  |  | 
COc1ccc([C@H]2CC(=O)N3CCCC3N2)cc1 (stereo partly drawn) |  | > 100 µM |  | > 100 µM |  | > 100 µM |  |  |  | > 100 µM |  |  |  |  |  |  |  |  | > 100 µM | 
Nc1nc2c(ncn2Cc2ccccc2CCO)c(=O)[nH]1 |  | > 100 µM |  | > 100 µM |  |  |  |  |  | > 100 µM |  |  |  |  |  | > 100 µM |  |  |  | 
Cc1cc(C)c2c(c1)CN1CN2Cc2cc(C)cc(C)c21 |  | > 100 µM |  | 32.3 µM |  |  |  |  |  |  |  |  |  |  |  | 30.7 µM |  |  | 39.3 µM | 
